Patent publication US7645779B2, “Linked biaryl compounds” (Amgen Inc., priority 2001, dated 2010)

These molecules were tested on High Cholesterol Fed Rats (assay: HDL Cholesterol Assay in High Cholesterol Fed Rats). Conditions: Rattus norvegicus, 168 h, oral once a day over the final 7 days of a 14-day high cholesterol diet, HDL increase relative to the vehicle, read-out: Serum HDL cholesterol levels (% of increase) at 30 mg/kg.
Assay type: in vivo, Male Sprague-Dawley rats
Method: HDL Cholesterol Assay in High Cholesterol Fed Rats
Male Sprague-Dawley rats (BW: 100-120 g) were fed a high cholesterol diet (1.25% cholesterol, 0.5% cholic acid and 10% coconut oil) for 14 days. The animals were orally dosed with test compounds suspended to 0.5% methylcellulose solution once a day over the final 7 days. Typical doses of test compounds were 1-30 mg/kg/day.
After 7 days of treatment, serum HDL cholesterol concentration was determined from blood obtained by tail bleeds. HDL cholesterol determination was performed on a Hitachi 7170 automatic analyzer.
Serum HDL cholesterol level (% of increase) refers to the rate of HDL increase relative to the vehicle and was calculated as follows: […]

Compound	change in vivo at 30 mg/kg [%]
Cc1cc(Sc2ccc(OCc3ccc(C(F)(F)F)cc3)c(C)c2)ccc1OCC(=O)O [Compound 1, {2-methyl-4-[3-methyl-4-(4-trifluoromethyl-benzyloxy)-phenylsulfanyl]-phenoxy}-acetic acid]	> 100
CCCc1cc(Sc2ccc(OCc3ccc(C(F)(F)F)cc3)c(C)c2)ccc1OCC(=O)O [Compound 4, 4-[[3-methyl-4-(4-trifluoromethyl-benzyloxy)phenyl]sulfanyl]-2-propylphenoxy-acetic acid]	> 100
Cc1cc(S(=O)(=O)c2ccc(OCc3ccc(C(F)(F)F)cc3)cc2C)ccc1OCC(=O)O [Compound 5, 4-[[2-methyl-4-(4-trifluoromethyl-benzyloxy)phenyl]sulfonyl]-2-methylphenoxy-acetic acid]	≤ 100
Cc1cc(Sc2ccc(COc3ccc(C(F)(F)F)cc3)cc2)ccc1OCC(=O)O [Compound 7, 4-[[4-[(4-trifluoromethylphenoxy)methyl]phenyl]sulfanyl]-2-methylphenoxy-acetic acid]	≤ 100
Cc1cc(Sc2ccc(OCc3ccc(C(F)(F)F)cc3)cc2)ccc1OCC(=O)O [Compound 8]	> 100
Cc1cc(Sc2ccc(OCC(=O)O)c3ccccc23)ccc1OCc1ccc(C(F)(F)F)cc1 [Compound 9]	≤ 100
Cc1cc(Sc2ccc(COc3ccc(C(F)(F)F)cc3)cc2Cl)ccc1OCC(=O)O [Compound 10, 4-[[2-chloro-4-[(4-trifluoromethylphenoxy)methyl]phenyl]sulfanyl]-2-methylphenoxy-acetic acid]	≤ 100
Cc1cc(COc2ccc(C(F)(F)F)cc2)ccc1Sc1ccc(OCC(=O)O)cc1C [Compound 11]	> 100
Cc1cc(Sc2ccc(CNc3ccc(C(F)(F)F)cc3)cc2C)c(C)cc1OCC(=O)O [Compound 21, 2,5-dimethyl-4-[[2-methyl-4-[(4-trifluoromethyl-phenylamino)methyl]phenyl]sulfanyl]phenoxy-acetic acid]	> 100
O=C(O)COc1ccc(Sc2ccc(CNc3ccc(C(F)(F)F)cc3)cc2Cl)c2c1CCCC2 [Compound 22, (4-{2-chloro-4-[(4-trifluoromethyl-phenylamino)-methyl]-phenylsulfanyl}-5,6,7,8-tetrahydro-naphthalen-1-yloxy)-acetic acid]	≤ 100
